Results as given in US20060148732A1, “Inhibition of NF-kappaB by triterpene compositions” (priority 2000, published 2006).

Tests used:
[1] = test system: caspase-3 in Jurkat cells; experiment: Assay for caspase-3 protease; assay type: cell-based, human; settings: for start of caspase 3 activation: post treatment
Method: Caspase-3 activity was measured as described earlier (Enari et al., 1995) with some modifications. Briefly, Jurkat cells (1×10^6/ml) were treated with F035, D1 & G1 for different lengths of time. Cytosolic extracts were prepared by repeated freeze thawing in 300 μl of extraction buffer (12.5 mM Tris, pH 7.0, 1 mM DTT, 0.125 mM EDTA, 5% glycerol, 1 μM PMSF, 1 μg/ml leupeptin, 1 μg/ml pepstatin and 1 μg/ml aprotinin). Cell lystates were diluted 1:2 with ICE buffer (50 mM Tris, pH 7.0, 0.5 mM EDTA, 4 mM DTT and 20% glycerol) and incubated with 20 μM of a caspase 3 substrate (acetyl-Asp-Glu-Val-Asp-aminomethylcoumarin) at 37° C. Caspase-3 activity was monitored by the production of fluorescent aminomethylcoumarin, which was measured at excitation 355 nm, emission 460 nm using Fluoroscan II (Labsystems, Helsinki, Finland).
Assay for Caspase-3 Protease. Caspase-3 activity was measured as described earlier (Martin et al, 1995) with some modifications. Briefly, Jurkat cells (1×10^6) were treated with F094, avicin D, or avicin G (2 μg/ml) at 37° C. Cytosolic extracts were prepared by repeated freeze thawing of the cells in 300 μl of an extraction buffer (12.5 mM Tris, pH 7.0, 1 mM DTT, 0.125 mM EDTA, 5% glycerol, 1 μM PMSF, 1 μg/ml leupeptin, 1 μg/ml pepstatin, and 1 μg/ml aprotinin). Cell lysates were diluted 1:2 with an ICE buffer (50 mM Tris, pH 7.0, 0.5 mM EDTA, 4 mM DTT, and 20% glycerol) and incubated with 20 μM of a caspase-3 substrate (acetyl-Asp-Glu-Val-Asp-aminomethylcoumarin) (Calbiochem, La Jolla, Calif.) at 37° C. Caspase-3 activity was monitored by the production of flourescent aminomethylcoumarin that was measured at excitation 355 nm and emission 460 nm, using Fluoroscan II (Labsystems, Helsinki, Finland).

Jurkat cells = experiment: Mitochondrial membrane potential (DiOC6); assay type: cell-based, human; settings: 2 μg/ml
Method: Measurement of mitochondrial membrane potential (Δψm). Mitochondrial Δψm was measured as described by Zamzami, et al., 1995. After treatment with F094, avicin D, or avicin G (2 μg/ml) at 37° C, Jurkat cells were incubated with 80 nM of DiOC6 for 15 minutes at room temperature. They were then analyzed on a cytofluorometer (Facscalibar, excitation: 488 nm and emission: 552 nm).

C=C[C@](C)(O)CC/C=C(\CO)C(=O)O[C@H]1[C@H](O)[C@@H](O)[C@H](O[C@@](C)(C=C)CC/C=C(\CO)C(=O)O[C@H]2C[C@]3(C(=O)O[C@@H]4O[C@H](CO)[C@@H](O)[C@H](O)[C@H]4O[C@@H]4O[C@@H](C)[C@H](O[C@@H]5O[C@@H](CO)[C@H](O)[C@H]5O)[C@@H](O[C@@H]5O[C@H](CO)[C@@H](O)[C@H](O)[C@H]5O)[C@H]4O)[C@H](O)C[C@]4(C)C(=CC[C@@H]5[C@@]6(C)CC[C@H](O[C@@H]7O[C@H](CO[C@@H]8O[C@H](C)[C@H](O)[C@H](O)[C@H]8O[C@@H]8OC[C@@H](O)[C@H](O)[C@H]8O)[C@@H](O)[C@H](O)[C@H]7NC(C)=O)C(C)(C)[C@@H]6CC[C@]54C)[C@@H]3CC2(C)C)O[C@@H]1C [Fraction D1]
start of caspase 3 activation [1]: 4 h | mitochondrial membrane potential (Δψm) (Jurkat cells; 16 hours): significant drop | mitochondrial membrane potential (Δψm) (Jurkat cells; up to 8 hours): did not produce any significant changes

C=C[C@](C)(O)CC/C=C(\C)C(=O)O[C@H]1[C@H](O)[C@@H](O)[C@H](O[C@@](C)(C=C)CC/C=C(\CO)C(=O)O[C@H]2C[C@]3(C(=O)O[C@@H]4O[C@H](CO)[C@@H](O)[C@H](O)[C@H]4O[C@@H]4O[C@@H](C)[C@H](O[C@@H]5O[C@@H](CO)[C@H](O)[C@H]5O)[C@@H](O[C@@H]5O[C@H](CO)[C@@H](O)[C@H](O)[C@H]5O)[C@H]4O)[C@H](O)C[C@]4(C)C(=CC[C@@H]5[C@@]6(C)CC[C@H](O[C@@H]7O[C@H](CO[C@@H]8O[C@H](C)[C@H](O)[C@H](O)[C@H]8O[C@@H]8OC[C@@H](O)[C@H](O)[C@H]8O)[C@@H](O)[C@H](O)[C@H]7NC(C)=O)C(C)(C)[C@@H]6CC[C@]54C)[C@@H]3CC2(C)C)O[C@@H]1C [Fraction G1]
time at which activation of caspase-3 is detectable ([1]; 2 μg/ml): 2 to 4 h | start of caspase 3 activation [1]: 4 h | mitochondrial membrane potential (Δψm) (Jurkat cells; 16 hours): significant drop | mitochondrial membrane potential (Δψm) (Jurkat cells; up to 8 hours): did not produce any significant changes
